Measurements: US20240294498A1, “FACTOR XIIA INHIBITORS” (Lunac Therapeutics Ltd, priority 2021, published 2024)

Legend:
Format in all cases: biochemical
FXIIa = molecular target: T1, FXIIa (Homo sapiens, UniProt P00748); assay: Determination of Factor XIIa inhibition (chromogenic substrate S-2302); details: human FXIIa alpha, Ki category
T1 construct: FXIIa alpha
T1 sequence (P00748 373-615 limits assumed): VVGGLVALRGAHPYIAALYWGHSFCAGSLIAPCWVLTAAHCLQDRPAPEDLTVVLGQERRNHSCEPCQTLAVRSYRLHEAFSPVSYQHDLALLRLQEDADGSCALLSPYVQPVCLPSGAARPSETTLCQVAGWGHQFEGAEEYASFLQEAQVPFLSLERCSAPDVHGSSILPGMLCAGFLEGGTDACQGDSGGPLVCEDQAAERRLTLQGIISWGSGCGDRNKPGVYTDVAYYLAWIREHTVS
T1 sequence (P00748 20-372 partner limits assumed): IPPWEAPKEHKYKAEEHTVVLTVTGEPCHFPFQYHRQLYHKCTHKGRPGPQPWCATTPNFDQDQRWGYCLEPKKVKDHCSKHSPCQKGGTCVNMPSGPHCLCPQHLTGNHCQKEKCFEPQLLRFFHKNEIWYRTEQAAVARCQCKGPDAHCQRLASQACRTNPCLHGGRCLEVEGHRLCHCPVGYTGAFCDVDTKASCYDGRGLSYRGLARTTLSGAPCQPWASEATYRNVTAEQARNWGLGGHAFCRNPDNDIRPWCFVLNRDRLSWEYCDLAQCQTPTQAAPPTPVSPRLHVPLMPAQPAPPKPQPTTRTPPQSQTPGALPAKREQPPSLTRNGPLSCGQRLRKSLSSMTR
In short: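 Compound preincubated with 10 nM FXIIa for 10 min at 37° C in 50 mM Tris, 137 mM NaCl, pH 7.4, 5% DMSO, top concentration 500 μM; S-2302 added at Km. pNA release followed at 405 nm for 3 h; IC50 from initial rates, converted to Ki via Ki = IC50/(1+[S]/Km).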

FXa = FXa (Homo sapiens, UniProt P00742); assay: Determination of selectivity: FXa inhibition (chromogenic substrate S2765); details: fold selectivity for FXIIa over FXa (human); category
In short: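 FXa (5 nM) preincubated with increasing compound (top 500 μM) for 10 mins at 37° C in 50 mM Tris, 137 mM NaCl pH 7.4, 5% DMSO, then S2765 added at its KM. Absorbance at 405 nm followed kinetically for 3 hours; IC50 from initial rates, converted to Ki by Cheng-Prusoff.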

thrombin = molecular target: T2, thrombin (Homo sapiens, UniProt P00734); assay: Determination of selectivity: thrombin inhibition (chromogenic substrate GPR); details: fold selectivity for FXIIa over thrombin (human); category
T2 construct: FXa (5 nM) and thrombin (5 nM)
In short: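 Thrombin (5 nM) preincubated with increasing compound concentrations (top 500 μM, 5% DMSO) 10 min at 37 °C in 50 mM Tris, 137 mM NaCl pH 7.4, then GPR chromogenic substrate at its KM. pNA release read kinetically at 405 nm for 3 h at 37 °C. IC50 from initial rates, converted to Ki via Cheng–Prusoff.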

FXa, sequence (P00742 235-488 limits assumed): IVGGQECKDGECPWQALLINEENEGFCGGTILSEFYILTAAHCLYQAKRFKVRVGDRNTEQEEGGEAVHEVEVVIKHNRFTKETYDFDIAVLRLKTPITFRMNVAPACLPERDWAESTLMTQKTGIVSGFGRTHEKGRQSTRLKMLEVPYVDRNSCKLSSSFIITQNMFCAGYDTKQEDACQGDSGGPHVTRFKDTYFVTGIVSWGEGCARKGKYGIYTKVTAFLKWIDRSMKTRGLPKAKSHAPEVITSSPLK
FXa, sequence (P00742 41-179 partner limits assumed): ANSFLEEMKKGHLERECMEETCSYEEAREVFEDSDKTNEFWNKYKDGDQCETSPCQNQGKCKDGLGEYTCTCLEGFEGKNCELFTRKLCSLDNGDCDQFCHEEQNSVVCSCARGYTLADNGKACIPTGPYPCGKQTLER

| Compound | Ki (FXIIa) [nM] | FXa (human)/FXIIa alpha (human) (FXa) | Thrombin (human)/FXIIa alpha (human) (thrombin) |
| --- | --- | --- | --- |
| Cc1ccc(C[C@@H]2C[C@@H](C(=O)NCc3ccc4c(cnn4C)c3)N(C(=O)[C@@H]3NCCC[C@@H]3C(=O)N(CCN(C)C)C3CC3)C2)cc1 [Example M06048, (2R,3S)-N-cyclopropyl-N-(2-(dimethylamino)ethyl)-2-((2S,4R)-2-(((1-methyl-1H-indazol-5-yl)methyl)carbamoyl)-4-(4-methylbenzyl)pyrrolidine-1-carbonyl)piperidine-3-carboxamide] | < 200 | ∘∘∘ | +++ (fold selectivity values greater than 100) |
| Cn1nnc2cc(CNC(=O)[C@@H]3C[C@@H](CC4CCC5(CC4)CC5)CN3C(=O)[C@@H]3NCCC[C@@H]3C(=O)N3CCCC3)ccc21 [Compound M06003] | 200 to 800 | ∘∘∘ | +++ (fold selectivity values greater than 100) |
| COc1nn(C)c2ccc(CNC(=O)[C@@H]3C[C@@H](Cc4ccc(C)cc4)CN3C(=O)[C@@H]3NCCC[C@@H]3C(=O)N3CCCC3)cc12 [Example M05810, (2S,4R)-N-((3-methoxy-1-methyl-1H-indazol-5-yl)methyl)-4-(4-methylbenzyl)-1-((2R,3S)-3-(pyrrolidine-1-carbonyl)piperidine-2-carbonyl)pyrrolidine-2-carboxamide] | 800 to 5000 | ∘∘ | ++ (a fold selectivity value of 10 to 100) |
| Cc1ccc(C[C@@H]2C[C@@H](C(=O)NCc3ccc4[nH]ncc4c3)N(C(=O)[C@@H]3NCCC[C@@H]3C(=O)N3CCCC3)C2)cc1 [Example M05748, (2S,4R)-N-((1H-indazol-5-yl)methyl)-4-(4-methylbenzyl)-1-((2R,3S)-3-(pyrrolidine-1-carbonyl)piperidine-2-carbonyl)pyrrolidine-2-carboxamide] | 800 to 5000 | ∘∘∘ | ++ (a fold selectivity value of 10 to 100) |
| Cc1ccc(C[C@@H]2C[C@@H](C(=O)NCc3ccc4c(c3)c(F)nn4C)N(C(=O)[C@@H]3NCCC[C@@H]3C(=O)N3CCCC3)C2)cc1 [Example M05806, (2S,4R)-N-((3-fluoro-1-methyl-1H-indazol-5-yl)methyl)-4-(4-methylbenzyl)-1-((2R,3S)-3-(pyrrolidine-1-carbonyl)piperidine-2-carbonyl)pyrrolidine-2-carboxamide] | < 200 | ∘∘∘ | +++ (fold selectivity values greater than 100) |
| Cc1ccc(C[C@@H]2C[C@@H](C(=O)NCc3ccc4c(cnn4C)c3)N(C(=O)[C@@H]3NCCC[C@@H]3C(=O)N3CCC(F)(F)C3)C2)cc1 [Example M05787, (2S,4R)-1-((2R,3S)-3-(3,3-difluoropyrrolidine-1-carbonyl)piperidine-2-carbonyl)-N-((1-methyl-1H-indazol-5-yl)methyl)-4-(4-methylbenzyl)pyrrolidine-2-carboxamide] | 200 to 800 | ∘∘∘ | +++ (fold selectivity values greater than 100) |
| Cc1ccc(C[C@@H]2C[C@@H](C(=O)NCc3ccc4c(cnn4C)c3)N(C(=O)[C@@H]3NCCC[C@@H]3C(=O)N(C)CCN3CC(F)(F)C3)C2)cc1 [Example M06129, (2R,3S)-N-(2-(3,3-difluoroazetidin-1-yl)ethyl)-N-methyl-2-((2S,4R)-2-(((1-methyl-1H-indazol-5-yl)methyl)carbamoyl)-4-(4-methylbenzyl)pyrrolidine-1-carbonyl)piperidine-3-carboxamide] | < 200 | ∘∘∘ | +++ (fold selectivity values greater than 100) |
| Cn1ncc2cc(CNC(=O)[C@@H]3C[C@@H](Cc4ccccc4C(F)(F)F)CN3C(=O)[C@@H]3NCCC[C@@H]3C(=O)N3CCCC3)ccc21 [Example M05809, (2S,4R)-N-((1-methyl-1H-indazol-5-yl)methyl)-1-((2R,3S)-3-(pyrrolidine-1-carbonyl)piperidine-2-carbonyl)-4-(2-(trifluoromethyl)benzyl)pyrrolidine-2-carboxamide] | 200 to 800 | ∘∘∘ | +++ (fold selectivity values greater than 100) |
| Cc1ccc(C[C@@H]2C[C@@H](C(=O)NCc3ccc4c(cnn4C)c3)N(C(=O)[C@@H]3NCCC[C@@H]3C(=O)N3CCOCC3)C2)cc1 [Example M05753, (2S,4R)—N-((1-methyl-1H-indazol-5-yl)methyl)-4-(4-methylbenzyl)-1-((2R,3S)-3-(morpholine-4-carbonyl)piperidine-2-carbonyl)pyrrolidine-2-carboxamide] | 200 to 800 | ∘∘∘ | ++ (a fold selectivity value of 10 to 100) |
| Cc1ccc(C[C@@H]2C[C@@H](C(=O)NCc3ccc4c(cnn4C)c3)N(C(=O)[C@@H]3NCCC[C@@H]3C(=O)N3CCC4(CC3)CC4)C2)cc1 [Example M05775, (2S,4R)-1-((2R,3S)-3-(6-azaspiro[2.5]octane-6-carbonyl)piperidine-2-carbonyl)-N-((1-methyl-1H-indazol-5-yl)methyl)-4-(4-methylbenzyl)pyrrolidine-2-carboxamide] | 800 to 5000 | ∘∘∘ | ++ (a fold selectivity value of 10 to 100) |
